Assay results published in BigSolDB 2.1.

O=[N+]([O-])c1cccc(Cl)c1Cl
solubility (mole fraction)
Details	in ethanol	in methanol	in water
278.15 K	0.013	0.0122	1.6e-06
280.65 K	0.0149	0.0137	2.03e-06
283.15 K	0.0172	0.0157	2.45e-06
285.65 K	0.0203	0.0182	2.88e-06
288.15 K	0.0231	0.0206	3.91e-06
290.65 K	0.0257	0.0232	4.85e-06
293.15 K	0.0286	0.0258	5.85e-06
295.65 K	0.0322	0.0288	6.98e-06
298.15 K	0.0366	0.0315	8.68e-06
300.65 K	0.0418	0.0343	1.07e-05
303.15 K	0.0465	0.0376	1.29e-05
